The test system of one data set is Pyricularia oryzae. The class given is in vivo. The following applies: METHOD 2 (unbanded).
A further data set relates to Plasmopara viticola. Kind of data set: Fungicidal test, Plasmopara viticola (PLASVI) on vines, PRCO. The format is in vivo. The following applies: METHOD 2 (unbanded).
For data set [1], the system named is Phytophthora infestans lycopersici. The format is in vivo. As to conditions: METHOD 2 (unbanded).
The next data set has as its system Venturia inaequalis. Kind of data set: Fungicidal test, Venturia inaequalis (VENTIN) on apples, PRCO. The class given is in vivo. The following applies: METHOD 2 (unbanded).
For the next data set, the system named is Musca domestica. The following applies: 500 ppm by weight; knockdown assessed 15 minutes after treatment.
A further data set concerns Uncinula necator. The data set is described as follows: Fungicidal test, Uncinula necator (UNCINE) on vines, PRCO. As to conditions: METHOD 2 (unbanded). The class given is in vivo.
For data set [2], the system named is Erysiphe graminis f.sp. tritici. The data set is described as follows: Fungicidal test, Erysiphe graminis f.sp. tritici (ERYSGT) on wheat, PRCO. As to conditions: 1 d Prot/Foir; METHOD 2 (unbanded). The class given is in vivo.
For the next data set, the system named is Septoria nodorum. Kind of data set: Fungicidal test, Septoria nodorum (LEPTNO) on wheat, PRCO. The class given is in vivo. The following applies: METHOD 2 (unbanded).
The test system of a further data set is Rhizoctonia solani. Kind of data set: Fungicidal test, Rhizoctonia solani (RHIZSO) on rice, PRCO. As to conditions: METHOD 2 (unbanded). The format is in vivo.
For a further data set, the system named is Puccinia recondita. Kind of data set: Fungicidal test, Puccinia recondita (PUCCRT) on wheat, PRCO. The format is in vivo. The following applies: METHOD 2 (unbanded).
For a further data set, the system named is Meloidogyne incognita. Kind of data set: Nematode test, J2 infective juveniles of Meloidogyne incognita, mortality. The following applies: 12.5 ppm; J2 infective juveniles suspended in solution; mortality after three days.

Description for Meloidogyne incognita: (§1) The activities of individual compounds of formula (I) were determined using a variety of pests. With the exception of nematodes, the pests were treated with a liquid composition containing 500 parts per million (ppm) by weight of a compound unless otherwise stated. Each composition was made by dissolving the compound in an acetone and ethanol (50:50 by volume) mixture and diluting the solution with water containing 0.05% by volume of a wetting agent, SYNPERONIC NP8, until the liquid composition contained the required concentration of the compound.
The test procedure for nematodes involved dissolving the compound in an acetone and ethanol (50:50 by volume) mixture and diluting the solution with water to obtain a final concentration of the compound of 12.5 ppm. J2 infective juveniles of Meloidogyne incognita were suspended in the solution in a glass vial and mortality assessed after a period of three days.
Description for Musca domestica: as §1
The test procedure adopted with regard to each pest, except nematodes, was essentially the same and composed supporting a number of the pests on a medium which was usually a substrate, a host plant or a foodstuff on which the pests feed, and treating either or both the medium and the pests with a composition. Pest mortality was assessed usually between three and five days after treatment Knockdown of housefly (Musca domestica) was assessed 15 minutes after treatment

Turning to `CCC(C)c1nc2cc(CC(=O)Nc3snc(C)c3Cl)ccc2o1` (stereo not shown) [10(A3)], the “PYRIOR 1 d Prot/Foir PRCO” value with Pyricularia oryzae amounted to 77. In the data set on Plasmopara viticola, the “PLASVI 1 d Prot/Foir PRCO” value was found to be 87. Also, the “PHYTIN 1 d Prot/Foir PRCO” value in data set [1] is 100. In addition, in the data set on Venturia inaequalis, the “VENTIN 1 d Prot/Foir PRCO” value was found to be 40. Further, the “MUSCDO AC = Musca domestica (knockdown), score” value (“MUSCDO AC = Musca domestica” below) in the data set on Musca domestica is 5 (5 indicates 40-79% mortality). The “UNCINE 1 d Prot/Foir PRCO” value in the data set with Uncinula necator is 96. Further, the “ERYSGT 1 d Prot/Foir PRCO” value in [2] amounted to 98. For the same molecule, in the data set on Septoria nodorum, the “LEPTNO 1 d Prot/Foir PRCO” value is on record as 28. In the data set with Rhizoctonia solani, the “RHIZSO 1 d Prot/Foir PRCO” value was 0. The “PUCCRT 1 d Prot/Foir PRCO” value in the data set with Puccinia recondita was 100. In the data set on Meloidogyne incognita, the “MELGIN = Meloidogyne incognita, grading of mortality (score)” value (“MELGIN = Meloidogyne incognita, grading” for short) is on record as 0 (0 indicates less than 40% mortality).

Regarding `Cc1nsc(N(C)C(=O)Cc2ccc3oc(CC(C)(C)C)nc3c2)c1Cl` [15(B3)], the “PYRIOR 1 d Prot/Foir PRCO” value in the data set on Pyricularia oryzae is 69. Further, in the data set with Plasmopara viticola, the “PLASVI 1 d Prot/Foir PRCO” value is recorded as 79. Moreover, in data set [1], the “PHYTIN 1 d Prot/Foir PRCO” value was 99. For the same molecule, the “VENTIN 1 d Prot/Foir PRCO” value in the data set on Venturia inaequalis came out at 5. In addition, the “MUSCDO AC = Musca domestica” value with Musca domestica is reported as 0 (0 indicates less than 40% mortality). For the same molecule, the “UNCINE 1 d Prot/Foir PRCO” value in the data set on Uncinula necator amounted to 100. Besides, the “ERYSGT 1 d Prot/Foir PRCO” value in [2] worked out at 75. The “LEPTNO 1 d Prot/Foir PRCO” value in the data set on Septoria nodorum is on record as −2. Further, in the data set on Rhizoctonia solani, the “RHIZSO 1 d Prot/Foir PRCO” value came out at 29. For the same molecule, the “PUCCRT 1 d Prot/Foir PRCO” value with Puccinia recondita came out at 15. The “MELGIN = Meloidogyne incognita, grading” value with Meloidogyne incognita is 0 (0 indicates less than 40% mortality).

Take `CCSc1nc2cc(CC(=O)Nc3snc(C)c3Cl)ccc2o1` [221(A3)]: the “PYRIOR 1 d Prot/Foir PRCO” value in the data set with Pyricularia oryzae is listed as 93. In the data set on Plasmopara viticola, the “PLASVI 1 d Prot/Foir PRCO” value is 84. In addition, the “PHYTIN 1 d Prot/Foir PRCO” value in data set [1] is given as 99. Besides, the “VENTIN 1 d Prot/Foir PRCO” value with Venturia inaequalis is given as 25. Moreover, the “MUSCDO AC = Musca domestica” value in the data set with Musca domestica was 9 (9 indicates 80-100% mortality). Also, in the data set with Uncinula necator, the “UNCINE 1 d Prot/Foir PRCO” value is reported as 23. For the same molecule, the “ERYSGT 1 d Prot/Foir PRCO” value in data set [2] was determined as 50. Further, the “LEPTNO 1 d Prot/Foir PRCO” value in the data set with Septoria nodorum was 20. Further, in the data set on Rhizoctonia solani, the “RHIZSO 1 d Prot/Foir PRCO” value came out at 0. The “PUCCRT 1 d Prot/Foir PRCO” value in the data set with Puccinia recondita was determined as 99. The “MELGIN = Meloidogyne incognita, grading” value with Meloidogyne incognita is recorded as 0 (0 indicates less than 40% mortality).

For `Cc1nsc(NC(=O)Cc2ccc3oc(SC(C)(C)C)nc3c2)c1Cl` [224(A3)], the “PYRIOR 1 d Prot/Foir PRCO” value in the data set on Pyricularia oryzae worked out at 91. The “PLASVI 1 d Prot/Foir PRCO” value in the data set with Plasmopara viticola came to 99. Moreover, the “PHYTIN 1 d Prot/Foir PRCO” value in [1] is recorded as 100. Further, the “VENTIN 1 d Prot/Foir PRCO” value in the data set with Venturia inaequalis is 60. Further, the “MUSCDO AC = Musca domestica” value in the data set with Musca domestica is on record as 0 (0 indicates less than 40% mortality). Besides, the “UNCINE 1 d Prot/Foir PRCO” value in the data set on Uncinula necator is 91. The “ERYSGT 1 d Prot/Foir PRCO” value in data set [2] is recorded as 88. Also, in the data set on Septoria nodorum, the “LEPTNO 1 d Prot/Foir PRCO” value stood at 16. Further, the “RHIZSO 1 d Prot/Foir PRCO” value in the data set with Rhizoctonia solani is given as 0. The “PUCCRT 1 d Prot/Foir PRCO” value with Puccinia recondita stood at 98. For the same molecule, the “MELGIN = Meloidogyne incognita, grading” value in the data set on Meloidogyne incognita is given as 0 (0 indicates less than 40% mortality).

As to `Cc1nsc(NC(=O)Cc2ccc3oc(CCc4ccccc4)nc3c2)c1Cl` [247(A3)], the “PYRIOR 1 d Prot/Foir PRCO” value in the data set on Pyricularia oryzae was 85. For the same molecule, the “PLASVI 1 d Prot/Foir PRCO” value with Plasmopara viticola is 62. In addition, in data set [1], the “PHYTIN 1 d Prot/Foir PRCO” value came out at 97. In addition, the “VENTIN 1 d Prot/Foir PRCO” value with Venturia inaequalis was −11. Also, the “MUSCDO AC = Musca domestica” value in the data set on Musca domestica was 0 (0 indicates less than 40% mortality). For the same molecule, the “UNCINE 1 d Prot/Foir PRCO” value with Uncinula necator is on record as 95. Further, the “ERYSGT 1 d Prot/Foir PRCO” value in data set [2] turned out to be 61. For the same molecule, the “LEPTNO 1 d Prot/Foir PRCO” value with Septoria nodorum turned out to be 13. For the same molecule, the “RHIZSO 1 d Prot/Foir PRCO” value in the data set with Rhizoctonia solani was 0. For the same molecule, in the data set with Puccinia recondita, the “PUCCRT 1 d Prot/Foir PRCO” value amounted to 95. Further, in the data set on Meloidogyne incognita, the “MELGIN = Meloidogyne incognita, grading” value is on record as 0 (0 indicates less than 40% mortality).

The values are drawn from patent US6544989B2, “Benzazoles: benzoxazole, benzthiazole and benzimidazole derivatives” (Syngenta Limited, priority 1998, dated 2003).
